Key:
Escherichia coli = settings: E. coli, 1000 ppm acetic acid aqueous solution
Procedure: (§1) In this example, the antimicrobial activity of acetic acid against various bacteria was evaluated. As a control, a saline was used. The antimicrobial activity was evaluated on the basis of the number of colonies of the bacterium on the solid culture medium.
(§2) To each of an acetic acid aqueous solution and a saline, various species of bacteria were added to a concentration of 1×10^5 cells/mL to obtain bacterial suspensions. Each 100 μL was taken from the obtained bacterial suspensions, and these were taken as samples at day 0 of culture. The remaining bacterial suspensions were cultured for 7 days at 37° C. for E. coli and S. aureus and at 25° C. for P. aeruginosa, and each 100 μL was taken from the obtained bacterial suspensions as samples at day 7 of culture. Each 100 μL of the sample was coated on a heart infusion agar culture medium, and cultured at the respective culture temperatures. The culture time was 20 hours for E. coli, 24 hours for S. aureus and 48 hours for P. aeruginosa. After culturing, the number of colonies on the agar culture medium was counted, and the bacterial number (CFU/mL) was calculated.

Pseudomonas aeruginosa = settings: P. aeruginosa, 1000 ppm acetic acid aqueous solution
Procedure: as §1, §2

Staphylococcus aureus = settings: S. aureus, 1000 ppm acetic acid aqueous solution
Procedure: as §1, §2

Compound: CC(=O)O [acetic acid]
- Bacterial number At day 7 (Escherichia coli; cultured 7 days at 37° C.): 0 CFU/mL
- proliferation of bacteria in the solution (Escherichia coli; culturing for 7 days): cannot be proliferated
- Bacterial number At day 0 (Escherichia coli; day 0 of culture): 1000 CFU/mL
- Bacterial number At day 7 (Pseudomonas aeruginosa; cultured 7 days at 25° C.): 0 CFU/mL
- proliferation of bacteria in the solution (Pseudomonas aeruginosa; culturing for 7 days): cannot be proliferated
- Bacterial number At day 0 (Pseudomonas aeruginosa; day 0 of culture): 1000 CFU/mL
- Bacterial number At day 7 (Staphylococcus aureus; cultured 7 days at 37° C.): 0 CFU/mL
- proliferation of bacteria in the solution (Staphylococcus aureus; culturing for 7 days): cannot be proliferated
- Bacterial number At day 0 (Staphylococcus aureus; day 0 of culture): 1000 CFU/mL
